Test results published in patent EP0394122A2, “Use of tetracyclines to manufacture a medicament for the treatment and prevention of AIDS” (priority 1989, dated 1990).

Experiments:
[1] = system: virus HIV (LAV-1-BRU); experiment: Protection against the cytopathogenic effect of HIV in infected CEM clone 13 cells (MTT viability); format: cell-based; details: day 7
Procedure: (§1) Le test est réalisé sur la lignée lymphoblastoïde CEM clone 13. Dans une microplaque de 96 puits on dépose 25 µl/puits d'une solution de produit à tester ou de tampon phosphate isotonique (TPI) dans le cas des contrôles. Les produits sont étudiés à différentes concentrations (souvent 8), à raison de 4 puits par concentration. On ajoute alors 125 µl d'une suspension de cellules CEM dans le milieu RPMI contenant 10 % de sérum de veau foetal, 40 U/ml de pénicilline, 40 µg/ml de streptomycine et 5 µg/ml de polybrène (3500 cellules par puits) et les microplaques sont incubées une heure à 37°C, sous une atmosphère contenant 5 % de gaz carbonique. Pour chaque concentration, l'essai est partagé en 2 parties : une partie sur cellules infectées, pour la détermination de l'activité antivirale et l'autre partie sur cellules non infectées, pour déterminer la cytotoxicité des produits. On infecte alors la première série avec HIV (100 µl par puit d'une suspension de virus LAV-1-BRU contenant 200-300 TCID50) tandis que l'autre série reçoit 100 µl de milieu RPMI tel que défini précédemment. Au bout de 7 jours d'incubation, 175 µl de surnageant sont prélevés et rejetés. La viabilité cellulaire est déterminée selon une modification de la technique décrite par R. Pauwels et coll., J. Virol. Meth., 20, 309-321 (1988).
(§2) Les puits, contenant encore les cellules (infectées ou non infectées), reçoivent 10 µl d'une solution de MTT (méthylthiazoletétrazolium) à 5 mg/ml dans du tampon phosphate isotonique. Pendant une période d'incubation de 4 heures, le MTT est converti en un sel de formazan (bleu) à l'intérieur des cellules vivantes et proportionnellement à leur nombre, alors que rien n'apparaît dans les puits ne contenant plus que des cellules mortes. On ajoute alors 120 µl d'isopropanol (contenant 0,04 mole/l d'acide chlorhydrique) et les microplaques sont agitées jusqu'à la solubilisation du bleu de formazan. L'absorption à 540 nm est lue avec un lecteur automatique de réactions ELISA en microplaques.
(§3) Pour les essais de plus longue durée, on procède comme décrit précédemment jusqu'au jour 7. A ce moment, 100 µl de cellules sont prélevés pour mesurer la proportion de cellules vivantes et le restant est remis en culture avec du milieu frais contenant les produits aux mêmes concentrations. Cette opération est répétée tous les 4 jours.

[2] = system: lignée lymphoblastoïde CEM clone 13; experiment: Cytotoxicity on non-infected CEM clone 13 cells (MTT viability); format: cell-based, humaines; details: day 7
Procedure: as §1, with “Dans” for “Le test est réalisé sur la lignée lymphoblastoïde CEM clone 13. Dans”, “Virol.” for “Virol. Meth., 20, 309-321 (1988).”
as §2, §3

| Compound | Cellules infectées Densité optique ([1]; 0,01 µg/ml) | Cellules infectées Densité optique ([1]; 0,04 µg/ml) | Cellules infectées Densité optique ([1]; 0,12 µg/ml) | Cellules infectées Densité optique ([1]; 0,37 µg/ml) | Cellules infectées Densité optique ([1]; 10 µg/ml) | Cellules infectées Densité optique ([1]; 30 µg/ml) | Cellules infectées Densité optique ([1]; 1,11 µg/ml) | Cellules infectées Densité optique ([1]; 3,33 µg/ml) | Cellules non infectées Densité optique ([2]; 0,01 µg/ml) | Cellules non infectées Densité optique ([2]; 0,04 µg/ml) | Cellules non infectées Densité optique ([2]; 0,12 µg/ml) | Cellules non infectées Densité optique ([2]; 0,37 µg/ml) | Cellules non infectées Densité optique ([2]; 10 µg/ml) | Cellules non infectées Densité optique ([2]; 30 µg/ml) | Cellules non infectées Densité optique ([2]; 1,11 µg/ml) | Cellules non infectées Densité optique ([2]; 3,33 µg/ml) | further results |
| --- | --- | --- | --- | --- | --- | --- | --- | --- | --- | --- | --- | --- | --- | --- | --- | --- | --- |
| CN(C)C1C(=O)C(C(N)=O)=C(O)C2(O)C(=O)C3=C(O)c4c(O)cccc4C(C)(O)C3CC12 (stereo not drawn) [Exemple 1, tétracycline] | – | – | – | – | – | – | – | – | – | – | – | – | – | – | – | – | Cellules infectées Densité optique ([1]; 0,03 µg/ml): 0,350; Cellules infectées Densité optique ([1]; 0,08 µg/ml): 0,350; Cellules infectées Densité optique ([1]; 0,25 µg/ml): 0,340; Cellules infectées Densité optique ([1]; 0,74 µg/ml): 0,420; Cellules infectées Densité optique ([1]; 20 µg/ml): 0,400; Cellules infectées Densité optique ([1]; 60 µg/ml): 0,1; Cellules infectées Densité optique ([1]; 2,22 µg/ml): 0,510; Cellules infectées Densité optique ([1]; 6,67 µg/ml): 0,620; Cellules non infectées Densité optique ([2]; 0,03 µg/ml): 1,025; Cellules non infectées Densité optique ([2]; 0,08 µg/ml): 1,080; Cellules non infectées Densité optique ([2]; 0,25 µg/ml): 1,050; Cellules non infectées Densité optique ([2]; 0,74 µg/ml): 1,100; Cellules non infectées Densité optique ([2]; 20 µg/ml): 0,460; Cellules non infectées Densité optique ([2]; 60 µg/ml): 0,1; Cellules non infectées Densité optique ([2]; 2,22 µg/ml): 1,040; Cellules non infectées Densité optique ([2]; 6,67 µg/ml): 0,900 |
| C=C1c2cccc(O)c2C(O)=C2C(=O)C3(O)C(O)=C(C(N)=O)C(=O)C(N(C)C)C3C(O)C12 (stereo not drawn) [Exemple 3, métacycline] | 0,570 | 0,640 | 0,680 | 0,730 | 0,770 | 0,1 | 0,780 | 1,060 | 1,100 | 1,380 | 1,300 | 1,230 | 0,960 | 0,1 | 1,180 | 1,320 | – |
| lymecycline [Exemple 4] | 0,75 | 1,25 | 1,21 | 1,20 | 1,55 | 1,05 | 1,28 | 1,40 | 1,75 | 1,80 | 1,90 | 1,75 | 1,85 | 1,05 | 1,80 | 1,85 | – |
